Source: patent US9169209B2, “Compounds and compositions for the inhibition of NAMPT” (FORMA TM, LLC, priority 2011, dated 2015)

How the values were obtained:
[1] = tested on: A2780 cells; test: In-Vitro Cell Proliferation Assay (SRB, 72 hours); assay type: cell-based; conditions: Homo sapiens, A2780, 72 h, A2780 cells, 72 hours, sulforhodamine B; read-out: A2780 IC50
Description: After overnight incubation at 37° C. and 5% CO2, the compound titrations were performed in a separate dilution plate by serially diluting the compounds in DMSO to make a 1000× stock. The compounds were then further diluted to 10× final concentration in culture media, whereupon 20 μL of each dilution was added to the plated cells with controls (e.g. DMSO and blank) to make a final volume of 200 μL. The final DMSO concentration in each well was 0.1%. The plates were then incubated for 72 hours at 37° C. in a 5% CO2 incubator. The number of viable cells was then assessed using sulforhodamine B (SRB) assay. Cells were fixed at 4° C. for 1 hour with the addition of 50 μL 30% trichloroacetic acid (TCA) to make a final concentration of 6% TCA. The plates were washed four times with H2O and allowed to dry for at least 1 hour, whereupon 100 μL of a 4% SRB in 1% acetic acid solution was added to each well and incubated at room temperature for at least 30 minutes. The plates were then washed three times with 1% acetic acid, dried, and treated with 100 μL of 10 mM Tris-Base solution. The plates were then read in a microplate reader at an absorbance of 570 nm. Background was generated on a separate plate with media only.
First, the signals from the background plate are averaged and then the background was subtracted from the test plates.
wherein x denotes the average signal of the compound-treated cells and y denotes the average signal of the DMSO-treated cells.
wherein X denotes the compound concentration 1, Y denotes the compound concentration 2, XX denotes the % inhibition at compound concentration 1 (X), and YY denotes the % inhibition at compound concentration 2 (Y).

[2] = biological target: NAMPT (Homo sapiens (Human), UniProt P43490); test: Biochemical Inhibition Assay (NAMPT enzymatic reaction, NMN quantified by mass spectrometry); conditions: recombinant His-tagged NAMPT, 33 nM; 1 μM NAM; read-out: Biochem IC50
NAMPT, sequence (P43490 whole entry): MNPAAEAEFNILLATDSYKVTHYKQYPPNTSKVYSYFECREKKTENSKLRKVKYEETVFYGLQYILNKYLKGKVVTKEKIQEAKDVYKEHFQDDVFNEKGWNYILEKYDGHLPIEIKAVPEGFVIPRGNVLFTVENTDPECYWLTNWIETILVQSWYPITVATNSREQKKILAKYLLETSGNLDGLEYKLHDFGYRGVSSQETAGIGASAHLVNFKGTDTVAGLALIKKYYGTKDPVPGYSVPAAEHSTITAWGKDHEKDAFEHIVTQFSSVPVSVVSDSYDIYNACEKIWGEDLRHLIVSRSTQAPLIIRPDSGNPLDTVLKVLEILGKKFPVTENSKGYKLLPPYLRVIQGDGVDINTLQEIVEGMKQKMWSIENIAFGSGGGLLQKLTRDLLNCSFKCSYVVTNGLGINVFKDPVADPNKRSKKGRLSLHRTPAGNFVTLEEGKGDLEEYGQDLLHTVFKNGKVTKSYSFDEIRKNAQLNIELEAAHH
Description: Recombinant His-tagged NAMPT was produced in E. coli cells, purified over a Ni column, and further purified over a size-exclusion column by XTAL Biostructures.
The NAMPT enzymatic reactions were carried out in Buffer A (50 mM Hepes pH 7.5, 50 mM NaCl, 5 mM MgCl2, and 1 mM THP) in 96-well V-bottom plates. The compound titrations were performed in a separate dilution plate by serially diluting the compounds in DMSO to make a 100× stock. […] The compound and enzyme mix was incubated for 15 minutes at room temperature, then 10 μL of 10× substrate and co-factors in Buffer A were added to the test well to make a final concentration of 1 μM NAM, 100 μM 5-Phospho-D-ribose 1-diphosphate (PRPP), and 2.5 mM Adenosine 5′-triphosphate (ATP). The reaction was allowed to proceed for 30 minutes at room temperature, then was quenched with the addition of 11 μL of a solution of formic acid and L-Cystathionine to make a final concentration of 1% formic acid and 10 μM L-Cystathionine. Background and signal strength was determined by addition (or non-addition) of a serial dilution of NMN to a pre-quenched enzyme and cofactor mix.
A mass spectrometry-based assay was used to measure the NAMPT reaction product (NMN) and the internal control (L-Cystathionine). NMN and L-Cystathionine were detected using the services of Biocius Lifesciences with the RapidFire system. In short, the NMN and L-Cystathionine are bound to a graphitic carbon cartridge in 0.1% formic acid, eluted in 30% acetonitrile buffer, and injected into a Sciex 4000 mass spectrometer. The components of the sample were ionized with electrospray ionization and the positive ions were detected. […] The fragments are quantified and the analyzed by the following method.
First the NMN signal is normalized to the L-Cystathionine signal by dividing the NMN signal by the L-Cystathionine signal for each well. The signal from the background wells are averaged and subtracted from the test plates.
Wherein x denotes the average signal of the compound treated wells and y denotes the average signal of the DMSO treated wells.
IC50s are Determined Using Excel and this Formula.
Wherein X denotes the compound concentration 1, Y denotes the compound concentration 2, XX denotes the % inhibition at compound concentration 1 (X), and YY denotes the % inhibition at compound concentration 2 (Y).

CCN(CC)C(=O)c1cc(Cl)cc(S(=O)(=O)c2ccc(NC(=O)/C=C/c3cccnc3)cc2)c1 [3-chloro-N,N-diethyl-5-({4-[(2E)-3-(pyridin-3-yl)prop-2-enamido]benzene}sulfonyl)benzamide]
IC50 [1]: 27.4 nM | IC50 [2]: 19.4 nM

O=C(/C=C/c1cccnc1)Nc1ccc(S(=O)(=O)c2ccccc2OC(F)(F)F)cc1 [(2E)-3-(pyridin-3-yl)-N-(4-{[2-(trifluoromethoxy)benzene]sulfonyl}phenyl)prop-2-enamide]
IC50 [1]: 15.7 nM | IC50 [2]: 3.6 nM

O=C(/C=C/c1cccnc1)Nc1ccc(S(=O)(=O)Nc2ccccc2OC(F)(F)F)cc1 [(2E)-3-(pyridin-3-yl)-N-(4-{[2-(trifluoromethoxy)phenyl]sulfamoyl}phenyl)prop-2-enamide]
IC50 [1]: 1270 nM | IC50 [2]: 375 nM

O=C(/C=C/c1cccnc1)Nc1ccc(S(=O)(=O)c2cccc(OC(F)(F)F)c2)cc1 [(2E)-3-(pyridin-3-yl)-N-(4-{[3-(trifluoromethoxy)benzene]sulfonyl}phenyl)prop-2-enamide]
IC50 [1]: 47.7 nM | IC50 [2]: 61.5 nM

O=C(/C=C/c1cccnc1)Nc1ccc(S(=O)(=O)c2cccc(C(F)(F)F)c2)cc1 [(2E)-3-(pyridin-3-yl)-N-(4-{[3-(trifluoromethyl)benzene]sulfonyl}phenyl)prop-2-enamide]
IC50 [1]: 107 nM | IC50 [2]: 31.9 nM

O=C(/C=C/c1cccnc1)Nc1ccc(S(=O)(=O)c2ccc(OC(F)(F)F)cc2)cc1 [(2E)-3-(pyridin-3-yl)-N-(4-{[4-(trifluoromethoxy)benzene]sulfonyl}phenyl)prop-2-enamide]
IC50 [1]: 100 to 1000 nM | IC50 [2]: 167 nM

O=C(/C=C/c1cccnc1)Nc1ccc(S(=O)(=O)c2ccc(C(F)(F)F)cc2)cc1 [(2E)-3-(pyridin-3-yl)-N-(4-{[4-(trifluoromethyl)benzene]sulfonyl}phenyl)prop-2-enamide]
IC50 [1]: 100 to 1000 nM | IC50 [2]: 56.5 nM

O=C(/C=C/c1cccnc1)Nc1ccc(S(=O)(=O)c2cccnc2)cc1 [(2E)-3-(pyridin-3-yl)-N-[4-(pyridine-3-sulfonyl)phenyl]prop-2-enamide]
IC50 [1]: 100 to 1000 nM | IC50 [2]: 18.3 nM

O=C(/C=C/c1cccnc1)Nc1ccc(S(=O)(=O)c2cnc3ccccc3c2)cc1 [(2E)-3-(pyridin-3-yl)-N-[4-(quinoline-3-sulfonyl)phenyl]prop-2-enamide]
IC50 [1]: 100 nM | IC50 [2]: 3.7 nM

O=C(/C=C/c1cccnc1)Nc1ccc(S(=O)(=O)c2ccc3ncccc3c2)cc1 [(2E)-3-(pyridin-3-yl)-N-[4-(quinoline-6-sulfonyl)phenyl]prop-2-enamide]
IC50 [1]: 76.2 nM | IC50 [2]: 5.4 nM

O=C(/C=C/c1cccnc1)Nc1ccc(S(=O)(=O)c2cccc3cccnc23)cc1 [(2E)-3-(pyridin-3-yl)-N-[4-(quinoline-8-sulfonyl)phenyl]prop-2-enamide]
IC50 [1]: 12.2 nM | IC50 [2]: 3.6 nM

O=C(/C=C/c1cccnc1)Nc1ccc(S(=O)(=O)c2cncc(N3CCCC3)c2)cc1 [(2E)-3-(pyridin-3-yl)-N-{4-[5-(pyrrolidin-1-yl)pyridine-3-sulfonyl]phenyl}prop-2-enamide]
IC50 [1]: 51.1 nM | IC50 [2]: 1.4 nM

NS(=O)(=O)c1cccc(S(=O)(=O)c2ccc(NC(=O)/C=C/c3cccnc3)cc2)c1 [(2E)-3-(pyridin-3-yl)-N-{4-[(3-sulfamoylbenzene)sulfonyl]phenyl}prop-2-enamide]
IC50 [1]: 100 to 1000 nM | IC50 [2]: 9.9 nM

O=C(/C=C/c1cccnc1)Nc1ccc(S(=O)(=O)c2cccc3c2oc2ccccc23)cc1 [(2E)-N-(4-{8-oxatricyclo[7.4.0.0^2,^7]trideca-1(13),2,4,6,9,11-hexaene-6-sulfonyl}phenyl)-3-(pyridin-3-yl)prop-2-enamide]
IC50 [1]: 7.3 nM | IC50 [2]: 3.5 nM

O=C(/C=C/c1cccnc1)Nc1ccc(S(=O)(=O)c2cc(OC(F)(F)F)ccc2Cl)cc1 [(2E)-N-(4-{[2-chloro-5-(trifluoromethoxy)benzene]sulfonyl}phenyl)-3-(pyridin-3-yl)prop-2-enamide]
IC50 [1]: 100 to 1000 nM | IC50 [2]: 21 nM

COc1cc(C(F)(F)F)ccc1S(=O)(=O)c1ccc(NC(=O)/C=C/c2cccnc2)cc1 [(2E)-N-(4-{[2-methoxy-4-(trifluoromethyl)benzene]sulfonyl}phenyl)-3-(pyridin-3-yl)prop-2-enamide]
IC50 [1]: 118 nM | IC50 [2]: 59.6 nM

COc1ccc(C(C)C)cc1S(=O)(=O)c1ccc(NC(=O)/C=C/c2cccnc2)cc1 [(2E)-N-(4-{[2-methoxy-5-(propan-2-yl)benzene]sulfonyl}phenyl)-3-(pyridin-3-yl)prop-2-enamide]
IC50 [1]: 16.7 nM | IC50 [2]: 2.6 nM

COc1ccc(OC(F)(F)F)cc1S(=O)(=O)c1ccc(NC(=O)/C=C/c2cccnc2)cc1 [(2E)-N-(4-{[2-methoxy-5-(trifluoromethoxy)benzene]sulfonyl}phenyl)-3-(pyridin-3-yl)prop-2-enamide]
IC50 [1]: 29.3 nM | IC50 [2]: 16.8 nM

COc1ccc(C(F)(F)F)cc1S(=O)(=O)c1ccc(NC(=O)/C=C/c2cccnc2)cc1 [(2E)-N-(4-{[2-methoxy-5-(trifluoromethyl)benzene]sulfonyl}phenyl)-3-(pyridin-3-yl)prop-2-enamide]
IC50 [1]: 19 nM | IC50 [2]: 24.2 nM

Cc1cc(C(F)(F)F)ccc1S(=O)(=O)c1ccc(NC(=O)/C=C/c2cccnc2)cc1 [(2E)-N-(4-{[2-methyl-4-(trifluoromethyl)benzene]sulfonyl}phenyl)-3-(pyridin-3-yl)prop-2-enamide]
IC50 [1]: 100 to 1000 nM | IC50 [2]: 62.8 nM

O=C(/C=C/c1cccnc1)Nc1ccc(S(=O)(=O)c2cccc(-n3cccn3)c2)cc1 [(2E)-N-(4-{[3-(1H-pyrazol-1-yl)benzene]sulfonyl}phenyl)-3-(pyridin-3-yl)prop-2-enamide]
IC50 [1]: 88 nM | IC50 [2]: 4.8 nM

CC(C)COc1cccc(S(=O)(=O)c2ccc(NC(=O)/C=C/c3cccnc3)cc2)c1 [(2E)-N-(4-{[3-(2-methylpropoxy)benzene]sulfonyl}phenyl)-3-(pyridin-3-yl)prop-2-enamide]
IC50 [1]: 100 to 1000 nM | IC50 [2]: 56.7 nM

Cc1cc(C)n(-c2cccc(S(=O)(=O)c3ccc(NC(=O)/C=C/c4cccnc4)cc3)c2)n1 [(2E)-N-(4-{[3-(3,5-dimethyl-1H-pyrazol-1-yl)benzene]sulfonyl}phenyl)-3-(pyridin-3-yl)prop-2-enamide]
IC50 [1]: 31.9 nM | IC50 [2]: 9.1 nM

CCS(=O)(=O)c1cccc(S(=O)(=O)c2ccc(NC(=O)/C=C/c3cccnc3)cc2)c1 [(2E)-N-(4-{[3-(ethanesulfonyl)benzene]sulfonyl}phenyl)-3-(pyridin-3-yl)prop-2-enamide]
IC50 [1]: 70.4 nM | IC50 [2]: 17.3 nM

Cn1ncc2ccc(S(=O)(=O)c3ccc(NC(=O)/C=C/c4cccnc4)cc3)cc21 [(2E)-N-[4-(1-methyl-1H-indazole-6-sulfonyl)phenyl]-3-(pyridin-3-yl)prop-2-enamide]
IC50 [1]: 53 nM

COc1ccc2cc(S(=O)(=O)c3ccc(NC(=O)/C=C/c4cccnc4)cc3)ccc2c1 [(2E)-N-[4-(6-methoxynaphthalene-2-sulfonyl)phenyl]-3-(pyridin-3-yl)prop-2-enamide]
IC50 [1]: 100 to 1000 nM

Cc1ccc(S(=O)(=O)c2ccc(NC(=O)/C=C/c3cccnc3)cc2)cn1 [(2E)-N-[4-(6-methylpyridine-3-sulfonyl)phenyl]-3-(pyridin-3-yl)prop-2-enamide]
IC50 [1]: 100 to 1000 nM

Cc1cccc(S(=O)(=O)c2ccc(NC(=O)/C=C/c3cccnc3)cc2)c1 [(2E)-N-{4-[(3-methylbenzene)sulfonyl]phenyl}-3-(pyridin-3-yl)prop-2-enamide]
IC50 [1]: 93.3 nM
